In brackets after ≈: the same amount, converted by molar mass. One block for each compound: values may come before it.
Assays:
Format in all cases: functional, cell-based
PANC-1 = assay: Antiproliferative activity against human PANC-1 cells assessed as inhibition of cell growth incubated for 24 hrs by FMCA assay; settings: PANC-1, 24 h
[1] = Antiproliferative activity against vincristine-resistant human KB cells assessed as inhibition of cell growth incubated for 72 hrs by MTT assay
A549 = assay: Antiproliferative activity against human A549 cells assessed as inhibition of cell growth incubated for 72 hrs by MTT assay; settings: A549, 72 h, pooled result: one value given for 8 cell lines, strains, targets or settings

IC50 (PANC-1): 68 µM
Compound: O=C1NCc2c1c1c3ccc(O)cc3[nH]c1c1[nH]c3ccccc3c21

Compound: O=C1NC(=O)c2c1c1c3ccccc3[nH]c1c1[nH]c3cc(O)ccc3c21
IC50 [1]: 2.28 µg/mL (≈ 6.68 µM)

IC50 (A549): 18.7 µM
Compound: c1ccc2c(C3(c4c[nH]c5ccccc45)CCCCC3)c[nH]c2c1

Reference: ChEMBL document CHEMBL5331060, “Bisindole natural products: A vital source for the development of new anticancer drugs” (Eur J Med Chem, 2022)
